# Measured values reported in US20080108665A1, “Use of N-substituted sulfoximines for control of invertebrate pests” (priority 2006, published 2008).
# What was measured:
# Type in all cases: in vivo
# [1] = system: Brown Dog Tick (Rhipicephalus sanguineus); assay: Brown dog tick glass plate assay; settings: 48-hour exposure, mean
# Procedure: Compound (2) was evaluated in a dose response series to establish the range of activity of the test compound. Technical material was dissolved in acetone and diluted with the same solvent to obtain the test concentrations. Tick bioassays were conducted by applying 1.0 ml of the test substance to clean dry glass plates confined by 10 cm grease pencil circles drawn on the plates and spread evenly with an acid brush. The plates were allowed to dry for at least 1 hour before adult ticks were confined to the treated substrate using 10 cm Petri dish lids. Each treatment was replicated 5 times. Approximately 5 adult ticks were placed into each replicate. Mortality was assessed at 2, 8, 24 and 48 hours after introduction of the ticks into the test system. The mean percent mortality for each dosage group and time interval was determined and results from the 48-hour observation are presented in Table 9.
# [2] = system: Cotton Aphid (Aphis gossypii); assay: Cotton aphid seed coating assay on squash; settings: for % Control, seed coating systemic: 1st leaf infested 13 days after planting
# Procedure: Selected compounds of the invention were tested in assays designed to evaluate its systemic activity for control of cotton aphid through seed-coating prior to planting. The crop used in these assays was a hybrid squash (var. Pic-N-Pic). Test compound was formulated in a 10% SC formulation. Ten squash seeds were used for each treatment. Seeds were placed on waxed paper and a pipette was used to apply the original or diluted formulations to each seed. The air-dried, treated seeds were individually planted into 3 inch pots containing metro mix. The pots were placed on a California cart and moved into the greenhouse for sub watering only. At the specified number of days after planting, the plants were infested with approximately 40 wingless aphids. The infested plants were kept in an environmental holding room (23° C., 40% RH, 16 hr light: 8 hr dark) for three days before the number of live aphids was counted under a microscope. Calculations for % Control were based on a corrected basis compared to the populations on the reference plants germinated from seeds treated with the formulation blank.
# Corrected % Control=100*(X−Y)/X • where X=No. of live aphids on reference plants • Y=No. of live aphids on treated plants Assay 1. Compounds (1) and (2) were tested at 3 mg/seed. The original 10% SC formulation was used. One half (15 ul) of the sample was spread onto one side of a seed. Once dried (approximately 1 hr), the seed was flipped over and the 2nd half of sample was spread over the other side. Fourteen and 25 days after planting, aphid infestations were conducted on the 1st and 2nd true leaves, respectively.
# Assay 2. Compound (2) was tested at 0.1 and 1 mg/seed. For the 1 mg/seed treatment, the original 10% formulation was used. For the 0.1 mg/seed treatment, the 10% formulation were diluted 10× with DI water before application. One half (5 ul) of the sample was spread onto one side of a seed. Once dried (approximately 1 hr), the seed was flipped over and the 2nd half of sample was spread over the other side. Thirteen days after planting, the 1st leaf was infested.
# [3] = system: Brown Planthopper (Nilaparvata lugens); assay: Brown planthopper root uptake assay on rice; settings: 6-day observation
# Procedure: These assays were designed to evaluate the possibility of using compounds of the invention for applications such as nursing trays, transplanting water and/or irrigation. Root-uptake systemic assays were performed on both brown planthopper and green leafhopper. Four-week-old rice seedlings were submerged in 3-cm depth of water in the bottom portion (high 5 cm, diameter 3 cm) of a 2-part glass cylinder (high 18 cm, diameter 3 cm). A metal screen was used to hold the seedlings within the bottom portion. Scotch tape was used to bind the two portions of the cylinder after setting up the seedlings. A metal cap was used to cover the cylinder. There were 4 cylinders for each treatment. The test compound was dissolved in acetone to make a 10,000 ppm stock solution which was incorporated at final test concentrations of 5, 2, 1, 0.5, 0.25 ppm in the water in which rice seedlings were submerged. Five laboratory-reared 3rd instar nymphs of brown planthopper or green leafhopper were introduced into each cylinder 3 hr after insecticide application. The treated test units were kept in a growth chamber with conditions set as followings: Temperature 28±0.5° C.; Relative humidity 70±0.5%; Photoperiod 14 hr light: […].
# [4] = system: Cat Flea (Ctenocephalides felis); assay: Cat flea filter wool assay; settings: 48-hour exposure, mean
# Procedure: Compound (2) was evaluated in a dose response series to establish the range of activity of the test compound. Technical material was dissolved in acetone and diluted with the same solvent to obtain the test concentrations. Bioassays were conducted by treating polyester aquarium filter wool with 1.0 ml of the test solution, thoroughly saturating the substrate and allowing it to dry for at least 1 hour. The dry filter wool was then placed into 10 cm plastic Petri dishes and covered with the lid. Each treatment was replicated 5 times. Approximately 15 unfed cat flea adults were placed into each replicate of each dosage being evaluated. Mortality was assessed at 2, 8, 24 and 48 hours after introduction of the fleas into the test system. The mean percent mortality for each dosage group and time interval was determined and results from the 48-hour observation are presented in Table 8.
# [5] = 3 mg/seed, 10% SC formulation, counted 3 days after infestation
compound,measurement,setting,value
"CC(c1ccc(Cl)nc1)S(C)(=O)=NC#N (centres unmarked) [Compound 2, [1-(6-chloropyridin-3-yl)ethyl](methyl)oxido-λ^4-sulfanylidenecyanamide]",mortality at 5 ppm,[1]; 5.0 ppm,52%
same,mortality at 50 ppm,[1]; 50.0 ppm,56%
same,mortality at 500 ppm,[1]; 500.0 ppm,84%
same,"% Control, seed coating systemic",[2]; 0.1 mg/seed,36.5%
same,"% Control, seed coating systemic",[2]; 1 mg/seed,99.8%
same,"% Control, seed coating systemic 1st leaf, 14 days after planting",[2]; [5],100%
same,"% Control, seed coating systemic 2nd leaf, 25 days after planting",[2]; [5],99.8%
same,"% Control, root uptake systemic Brown planthopper",[3]; 0.25 ppm in water,55%
same,"% Control, root uptake systemic Brown planthopper",[3]; 0.50 ppm in water,80%
same,"% Control, root uptake systemic Brown planthopper",[3]; 1.00 ppm in water,100%
same,"% Control, root uptake systemic Brown planthopper",[3]; 2.00 ppm in water,100%
same,"% Control, root uptake systemic Brown planthopper",[3]; 5.00 ppm in water,100%
same,% Flea mortality,"[4]; 5,000.0 ppm",100%
same,mortality at 0.5 ppm,"[4]; Ctenocephalides felis, 0.5 ppm",52.4%
same,mortality at 5 ppm,"[4]; Ctenocephalides felis, 5.0 ppm",74.4%
same,mortality at 50 ppm,"[4]; Ctenocephalides felis, 50.0 ppm",76.6%
same,mortality at 500 ppm,"[4]; Ctenocephalides felis, 500.0 ppm",83.8%
